Consider 15 compounds from US20040116336A1, “Peptide derivatives” (priority 2002, published 2004).

Test [1] deals with T1, APJ (Homo sapiens, UniProt P35414).
T1 construct: expressed in transfected cells; host or cells: CHO (CHO-A10; clone 6 for the cAMP assay)
T1 sequence (P35414 1-380): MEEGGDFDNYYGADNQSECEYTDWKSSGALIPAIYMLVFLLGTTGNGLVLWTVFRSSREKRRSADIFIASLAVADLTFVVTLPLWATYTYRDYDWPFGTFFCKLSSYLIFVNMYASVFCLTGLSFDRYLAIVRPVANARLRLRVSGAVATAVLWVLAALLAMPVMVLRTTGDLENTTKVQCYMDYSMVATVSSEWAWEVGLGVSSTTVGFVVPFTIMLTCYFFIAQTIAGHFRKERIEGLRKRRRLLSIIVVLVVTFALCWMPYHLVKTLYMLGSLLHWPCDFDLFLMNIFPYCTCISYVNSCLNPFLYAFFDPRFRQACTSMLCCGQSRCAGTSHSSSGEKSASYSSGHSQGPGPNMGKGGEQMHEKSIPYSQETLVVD
Put plainly: Receptor binding assay-2 (compound in Reference Example 2 used). As for the experimental part: This product was mixed with an equal volume of an assay buffer (50 mM Tris-HCl/pH 7.5, 5 mM EDTA, 0.5 mM PMSF, 20 μg/ml leupeptin, 0.1 μg/ml pepstatin A, 4 μg/ml E-64 (Peptide Research Laboratory, Co.), 0.1% bovine serum albumin) and stored at −30° C. before use.
CHO-A10 cells were cultured, recovered with PBS containing 5 mM EDTA from a culture vessel, and suspended in the above-mentioned assay buffer not containing bovine serum albumin. The cells were homogenized 3 times at 12,000 rpm for 15 seconds by a Polytron homogenizer (manufactured by Kinematica Inc.) and then centrifuged (1000×g, 4° C., 10 minutes), and the supernatant was recovered. The precipitates were subjected again to the same procedure as above, and the respective supernatants were combined and centrifuged at 100,000×g, 4° C. for 1 hour, to recover precipitates (membrane fraction). The membrane fraction was suspended again in a small amount of the buffer, homogenized with a Teflon homogenizer and stored at −80° C. before use.
Binding assay was carried out under the following conditions. […] Measurement of non-specific binding was carried out using a well containing 1 μM unlabeled compound in place of the test sample. After the incubation was finished, a cell harvester (Packard) adapted to 96 wells and a filter unit (GF/C, Packard) were used for separation thereby capturing the membrane fraction on the filter. After the filter was sufficiently dried, Microcinti 0 (Packard) was added thereto, and using Top Count (Packard), the amount of the labeled material captured together with the membrane fraction on the filter was measured.

In test [2] the target is T1, APJ. Put plainly: Inhibitory activity on forskolin-stimulated cAMP production in CHO-A10 clone 6 cells. The format is cell-based. As for the experimental part: Measurement of an Inhibitory Activity on Forskolin-Stimulated cAMP Production
Hanks' balanced salt solution (HBSS) containing 0.2 mM 3-isobutyl-1-methylxanthine (IBMX) and 0.05% bovine serum albumin was prepared as an assay buffer, and each well was washed twice with 500 μl assay buffer and pre-incubated at 37° C. for 30 minutes. Further, each well was washed once with 500 μl assay buffer, and a sample dissolved in the assay buffer containing 1 μM forskolin was added at a volume of 500 μl/well and incubated at 37° C. for 30 minutes. Wells incubated with the assay buffer not containing forskolin were prepared in the same manner in order to determine the basal level of cellular cAMP production, while wells incubated with the assay buffer containing forskolin were also prepared in order to determine the maximum level of cAMP production stimulated with forskolin. After incubation was finished, each well was washed once with 500 μl assay buffer, and 500 μl lysis buffer 1B attached to a cAMP EIA system from Amersham was added to each well, to extract cAMP. According to the protocol of the kit, 100 μl of each extract was used to determine the level of cAMP. For the inhibitory activity of the sample on cAMP production, the difference (inhibited cAMP production) between the maximum level and the level of cAMP in the sample-containing wells was determined, and the inhibitory activity was expressed as percentage relative to the increased level of cAMP production stimulated with forskolin (that is, the difference between the maximum level and basal level), and from this dose-reaction curve, the EC50 was determined.
(In general: cAMP levels reflect the balance of adenylyl cyclase and phosphodiesterase activity.)

[3] abbreviates: compound in Reference Example 2 used as ligand, read-out: IC50.

Where two headings read alike, the source gives them in different places. Starred links: 1 amine or outer side, 2 acyl side, 3 side chain; linkers in the order of their positions; H or OH if unused. Non-standard residues stand in square brackets, D forms with d. Residues, ends and D or L forms follow the SMILES beside them. No end group written: not given here. X1 = O=C([C@H](Cc1ccc2ccc3cccc4ccc1c2c34)N[*:1])[*:2]; Phe(4-Cl) = N[C@@H](Cc1ccc(Cl)cc1)C(=O)O; 2Nal = N[C@@H](Cc1ccc2ccccc2c1)C(=O)O; Lys(Me2) = CN(C)CCCC[C@H](N)C(=O)O; Cha = N[C@@H](CC1CCCCC1)C(=O)O; Dap = NC[C@H](N)C(=O)O

For the compound `CSCC[C@H](NC(=O)[C@@H]1CCCN1C(=O)CNC(=O)[C@H](CCCCN)NC(=O)[C@H](Cc1c[nH]cn1)NC(=O)[C@H](CO)NC(=O)[C@H](CC(C)C)NC(=O)[C@H](CCCNC(=N)N)NC(=O)[C@@H]1CCCN1C(=O)[C@@H](N)CCCNC(=N)N)C(=O)N1CCC[C@H]1C(=O)N[C@@H](CC1CCCCC1)C(=O)O` [Compound in Ex. 49], the IC50 (commonly the concentration that inhibits the measured activity by half) in test [1] (setting [3]) amounted to 3.5 nM. Also, the EC50 (usually the concentration at which the effect is half-maximal) in test [2] (read-out: EC50) amounted to 0.71 nM.
The matching figures for `C[C@H](NC(=O)[C@H](CCCNC(=N)N)NC(=O)[C@@H]1CCCN1C(=O)[C@@H](N)CCCNC(=N)N)C(=O)N[C@@H](CO)C(=O)N[C@@H](Cc1c[nH]cn1)C(=O)N[C@@H](CCCCN)C(=O)NCC(=O)N1CCC[C@H]1C(=O)N[C@@H](CC1CCCCC1)C(=O)N1CCC[C@H]1C(=O)N[C@@H](Cc1ccc(Cl)cc1)C(=O)O` [Compound in Ex. 57] (H-RPRASHKGP[Cha]P[Phe(4-Cl)]-OH; N-terminus and C-terminus assumed): 0.17 nM and 0.52 nM.
On to `CSCC[C@H](NC(=O)[C@@H]1CCCN1C(=O)CNC(=O)[C@H](CCCCN)NC(=O)[C@H](Cc1c[nH]cn1)NC(=O)[C@H](CO)NC(=O)[C@H](CC(C)C)NC(=O)[C@H](CCCNC(=N)N)NC(=O)[C@@H]1CCCN1C(=O)[C@@H](N)CCCNC(=N)N)C(=O)N[C@@H](CC1CCCCC1)C(=O)O` [Compound in Ex. 36] (H-RPRLSHKGPM[Cha]-OH; N-terminus and C-terminus assumed), for which the IC50 in test [1] (setting [3]) amounted to 0.51 nM. Also, the EC50 in test [2] (read-out: EC50) came to 0.22 nM.
The matching figures for `CC(C)C[C@H](NC(=O)[C@H](CCCNC(=N)N)NC(=O)[C@@H]1CCCN1C(=O)[C@H](CCCNC(=N)N)NC(=O)[C@H](CCC(N)=O)NC(=O)[C@H](CCCNC(=N)N)NC(=O)[C@@H](N)CCCNC(=N)N)C(=O)N[C@@H](CO)C(=O)N[C@@H](C)C(=O)N[C@@H](CCCNC(=N)N)C(=O)NCC(=O)N1CCC[C@H]1C(=O)O` [Compound in Ex. 19]: 0.071 nM and 0.26 nM.
For `CC(C)C[C@H](NC(=O)[C@H](C)NC(=O)[C@@H]1CCCN1C(=O)[C@@H](N)CCCNC(=N)N)C(=O)N[C@@H](CO)C(=O)N[C@@H](Cc1c[nH]cn1)C(=O)N[C@@H](CCCCN)C(=O)NCC(=O)N1CCC[C@H]1C(=O)N[C@@H](CC1CCCCC1)C(=O)N1CCC[C@H]1C(=O)N[C@@H](Cc1ccc(Cl)cc1)C(=O)O` [Compound in Ex. 58] (H-RPALSHKGP[Cha]P[Phe(4-Cl)]-OH; N-terminus and C-terminus assumed), the IC50 in test [1] (setting [3]) was 0.15 nM. Moreover, in test [2] (read-out: EC50), the EC50 came out at 0.41 nM.
The matching figures for `CC(C)C[C@H](NC(=O)[C@H](CCCNC(=N)N)NC(=O)[C@@H]1CCCN1C(=O)[C@H](CCCNC(=N)N)NC(=O)[C@H](CCC(N)=O)NC(=O)[C@H](CCCNC(=N)N)NC(=O)[C@@H](N)CCCNC(=N)N)C(=O)N[C@@H](CO)C(=O)N[C@@H](C)C(=O)N[C@@H](CCCNC(=N)N)C(=O)NCC(=O)N(C)C` [Compound in Ex. 51] (H-RRQRPRLSARG-NMe2): 0.16 nM and 0.49 nM.
For the compound `CSCC[C@H](NC(=O)[C@@H]1CCCN1C(=O)CNC(=O)[C@H](CCCCN)NC(=O)[C@H](C)NC(=O)[C@H](CO)NC(=O)[C@H](CC(C)C)NC(=O)[C@H](CCCNC(=N)N)NC(=O)[C@@H]1CCCN1C(=O)[C@H](CCCNC(=N)N)NC(=O)[C@@H]1CCC(=O)N1)C(=O)N1CCC[C@H]1C(=O)N[C@@H](Cc1ccccc1)C(=O)O` [Compound in Ex. 29], the IC50 in test [1] (setting [3]) was found to be 0.21 nM. The EC50 in test [2] (read-out: EC50) was 0.22 nM.
As for `CC(C)C[C@H](NC(=O)[C@H](CCCNC(=N)N)NC(=O)[C@@H]1CCCN1C(=O)[C@@H](N)CCCNC(=N)N)C(=O)N[C@@H](CO)C(=O)N[C@@H](C)C(=O)N[C@@H](CCCNC(=N)N)C(=O)NCC(=O)N1CCC[C@H]1C(=O)N[C@@H](CC1CCCCC1)C(=O)N1CCC[C@H]1C(=O)N[C@@H](Cc1ccc2ccc3cccc4ccc1c2c34)C(=O)O` [Compound in Ex. 61] (H-RPRLSARGP[Cha]P[X1]-OH; N-terminus and C-terminus assumed), in test [1], the IC50 is 0.56 nM. In test [2], this compound yielded an EC50 of 2.2 nM.
Consider `CC(C)C[C@H](NC(=O)[C@H](CCCNC(=N)N)NC(=O)[C@@H]1CCCN1C(=O)[C@H](CCCNC(=N)N)NC(=O)[C@H](CCC(N)=O)NC(=O)[C@H](CCCNC(=N)N)NC(=O)[C@@H](N)CCCNC(=N)N)C(=O)N[C@@H](CO)C(=O)N[C@@H](Cc1c[nH]cn1)C(=O)N[C@@H](CCCCN)C(=O)NCC(=O)N1CCC[C@H]1C(=O)N[C@@H](CC[S+](C)[O-])C(=O)O` (stereo partly shown) [Compound in Ex. 20], for which the IC50 in test [1] (setting [3]) stood at 0.62 nM. In addition, the EC50 in test [2] (read-out: EC50) stood at 0.48 nM.
RPRLSARGPM [Compound in Ex. 27]: the IC50 in test [1] (setting [3]) came out at 0.11 nM.
With `CSCC[C@H](NC(=O)[C@@H]1CCCN1C(=O)CNC(=O)[C@H](CCCCN(C)C)NC(=O)[C@H](C)NC(=O)[C@H](CO)NC(=O)[C@H](CC(C)C)NC(=O)[C@H](CCCNC(=N)N)NC(=O)[C@@H]1CCCN1C(=O)[C@@H](N)CCCNC(=N)N)C(=O)N1CCC[C@H]1C(=O)N[C@@H](Cc1ccccc1)C(=O)O` [Compound in Ex. 64, Arg-Pro-Arg-Leu-Ser-Ala-Lys(Me)2-Gly-Pro-Met-Pro-Phe] (H-RPRLSA[Lys(Me2)]GPMPF-OH; N-terminus and C-terminus assumed), in test [2] (read-out: EC50), the EC50 stood at 0.38 nM.
For `CSCC[C@H](NC(=O)[C@@H]1CCCN1C(=O)CNC(=O)[C@H](CCCCN)NC(=O)[C@H](Cc1c[nH]cn1)NC(=O)[C@H](CO)NC(=O)[C@H](CC(C)C)NC(=O)[C@H](CCCNC(=N)N)NC(=O)[C@@H]1CCCN1C(=O)[C@@H](N)CCCNC(=N)N)C(=O)N[C@@H](Cc1ccc2ccccc2c1)C(=O)O` [Compound in Ex. 40] (H-RPRLSHKGPM[2Nal]-OH), the IC50 in test [1] (setting [3]) worked out at 0.61 nM. Also, the EC50 in test [2] (read-out: EC50) came out at 0.37 nM.
In the case of `CC(C)C[C@H](NC(=O)[C@H](CCCNC(=N)N)NC(=O)[C@@H]1CCCN1C(=O)[C@@H](N)CCCNC(=N)N)C(=O)N[C@@H](CO)C(=O)N[C@@H](CN)C(=O)N[C@@H](CCCNC(=N)N)C(=O)NCC(=O)N1CCC[C@H]1C(=O)N[C@@H](CC1CCCCC1)C(=O)N1CCC[C@H]1C(=O)N[C@@H](Cc1ccc(Cl)cc1)C(=O)O` [Compound in Ex. 65, Arg-Pro-Arg-Leu-Ser-Dap-Arg-Gly-Pro-Cha-Pro-Phe(Cl)] (H-RPRLS[Dap]RGP[Cha]P[Phe(4-Cl)]-OH), in test [1] (setting [3]), the IC50 is 0.26 nM. Further, in test [2] (read-out: EC50), the EC50 came to 0.52 nM.
For `CSCC[C@H](NC(=O)[C@@H]1CCCN1C(=O)CNC(=O)[C@H](CCCCN)NC(=O)[C@H](Cc1c[nH]cn1)NC(=O)[C@H](CO)NC(=O)[C@H](CC(C)C)NC(=O)[C@H](CCCNC(=N)N)NC(=O)[C@@H]1CCCN1C(=O)[C@H](CCCNC(=N)N)NC(=O)[C@H](CCCNC(=N)N)NC(=O)[C@H](CCCNC(=N)N)NC(=O)[C@@H](N)CCCNC(=N)N)C(=O)N1CCC[C@H]1C(=O)N[C@@H](Cc1ccccc1)C(=O)O` [Compound in Ex. 22], the IC50 in test [1] (setting [3]) came to 0.12 nM. In addition, in test [2] (read-out: EC50), the EC50 is 0.32 nM.
Take `CSCC[C@H](NC(=O)[C@@H]1CCCN1C(=O)CNC(=O)[C@H](CCCNC(=N)N)NC(=O)[C@H](C)NC(=O)[C@H](CO)NC(=O)[C@H](CC(C)C)NC(=O)[C@H](CCCNC(=N)N)NC(=O)[C@@H]1CCCN1C(=O)[C@H](CCCNC(=N)N)NC(=O)[C@H](CCC(N)=O)NC(=O)[C@H](CCCNC(=N)N)NC(=O)[C@@H](N)CCCNC(=N)N)C(=O)N1CCC[C@H]1C(=O)N[C@@H](Cc1ccccc1)C(=O)O` [Compound in Ex. 17]: in test [1] (setting [3]), the IC50 is 0.036 nM. Besides, in test [2] (read-out: EC50), the EC50 was determined as 0.39 nM.
